Where two headings read alike, the source gives them in different places. Square brackets hold non-standard residues; d marks the D form. Peptide text beside a SMILES is read from it. * marks the point of attachment. X13 = COc1ccc2c3c1O[C@H]1C(NC(=O)CNC(=O)CCSC4CC(=O)N(CCCCCCN5C(=O)CC(*)C5=O)C4=O)CC[C@@]4(O)[C@@H](C2)N(C)CC[C@]314; X9 = COc1ccc2c3c1O[C@H]1C(NCCSC4CC(=O)N(CCCCCCN5C(=O)CC(*)C5=O)C4=O)CC[C@@]4(O)[C@@H](C2)N(C)CC[C@]314; X1 = CN1CC[C@]23c4c5ccc(O)c4O[C@H]2C(NCCSC2CC(=O)N(CCCCCCN4C(=O)CC(*)C4=O)C2=O)CC[C@@]3(O)[C@H]1C5; X4 = CC(C)(C)c1ccc(C(C)(C)C(=O)Oc2ccc(S(=O)(=O)CCCC(=O)OCCCCCCN3C(=O)CC(*)C3=O)cc2)cc1; X7 = COc1ccc2c(c1)c(CC(=O)OCCCCCCN1C(=O)CC(*)C1=O)c(C)n2C(=O)c1ccc(Cl)cc1; Oic = O=C(O)[C@@H]1C[C@@H]2CCCC[C@@H]2N1; Hyp = O=C(O)[C@@H]1C[C@@H](O)CN1; dTic = O=C(O)[C@H]1Cc2ccccc2CN1; 2Thi = N[C@@H](Cc1cccs1)C(=O)O; X20 = O=C1CC(*)C(=O)N1CCCCCCO
Experiments:
BK2-receptor [1] = target: T1, BK2-receptor (Rattus norvegicus, UniProt P25023)
T1 sequence (P25023 1-396): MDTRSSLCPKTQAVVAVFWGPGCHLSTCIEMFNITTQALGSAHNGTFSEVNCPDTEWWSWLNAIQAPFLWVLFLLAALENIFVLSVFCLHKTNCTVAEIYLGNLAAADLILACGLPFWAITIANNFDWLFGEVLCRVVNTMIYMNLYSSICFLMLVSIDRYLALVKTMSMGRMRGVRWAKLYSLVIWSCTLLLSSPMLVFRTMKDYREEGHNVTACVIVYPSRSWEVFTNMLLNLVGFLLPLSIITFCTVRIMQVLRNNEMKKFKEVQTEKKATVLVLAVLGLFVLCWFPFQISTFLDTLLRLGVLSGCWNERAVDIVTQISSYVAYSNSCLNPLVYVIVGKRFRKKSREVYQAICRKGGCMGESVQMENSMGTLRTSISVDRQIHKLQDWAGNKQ

mu-opiate receptor = mu-opiate receptor (Cavia porcellus, UniProt A0ACM8Q262); assay: electrically stimulated guinea pig ileum assay; assay type: cell-based; conditions: in vitro mu-opiate receptor agonist activity
BK2-receptor [2] = target: T1, BK2-receptor; assay: cell-based
[3] = tested on: mice injected in the hind limb foot pad with formalin; assay: mouse formalin test (model of inflammatory and neurogenic pain); assay type: in vivo; conditions: for narcotic / behavioral effects in the formalin test: oxymorphone: highest doses 0.9 and 3.0 umoles/kg, CP-0494: over several hours
Method: In order to test the activity of these compounds in vivo, a model of inflammatory and neurogenic pain was used. This model measures the behavioral responses of mice injected in the hind limb foot pad with 50 ul of formalin. Control mice (open circles) show a characteristic bi-phasic response to the injected formalin wherein there is a short lasting initial response followed by a quiescent period which is then followed by a sustained period of hind limb licking. The licking behavior is interpreted to mean that the limb is irritated and painful. The greater the time spent licking, the more painful the stimulus.

[4] = target: T2, purified human neutrophil elastase (HNE) (Homo sapiens, UniProt P08246); assay: neutrophil elastase inhibition with chromogenic substrate MOS-AAPV-pNA; assay type: biochemical
T2 sequence (P08246 30-247 limits assumed): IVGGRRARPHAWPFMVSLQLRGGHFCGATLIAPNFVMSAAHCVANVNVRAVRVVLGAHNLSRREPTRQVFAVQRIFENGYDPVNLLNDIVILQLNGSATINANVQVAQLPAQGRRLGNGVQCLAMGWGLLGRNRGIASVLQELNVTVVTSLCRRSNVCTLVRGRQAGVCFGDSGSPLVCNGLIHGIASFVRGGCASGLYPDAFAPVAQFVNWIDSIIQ

[5] = freshly obtained normal human plasma; conditions: 37° C., up to 180 minutes
in vitro = assay: in vitro
Method: Unfortunately, there are no established animal models that can be employed to assess combined BKAn and NEI activity in vivo. Therefore, in order to assess the potential for in vivo hydrolysis of the intact heterodimer, an in vitro "surrogate" system was employed wherein the parent heterodimer (CP-0502) was incubated with human plasma and the resulting metabolites analyzed by reverse phase HPLC.
CP-0502 was added to freshly obtained normal human plasma and allowed to incubate at 37° C. for varying amounts of time. At the designated time the samples were treated with acidified (0.1N HCl) acetonitrile in order to precipitate the plasma proteins. Aliquots (75 ul) of the supernatents were then analyzed on a Vydac C-18 reverse phase HPLC column using 24% to 80% acetonitrile gradient in 0.1% TFA. The eluent was monitored at 214 nm.

[6] = tested on: rat lung parenchymal strips (cyclooxygenase dependent contraction); assay: rat lung parenchymal strips challenged with arachidonic acid; assay type: cell-based; conditions: contraction in response to exogenously applied arachidonic acid
Excerpt: As mentioned previously, for the COI to work it may need to be dissociated from the BKAn so as to allow for its intracellular penetration. Therefore, in order to evaluate the functional activity of a BKAn/COI heterodimer, CP-0460 was exposed to rat lung parenchymal strips which were then challenged with arachidonic acid. This tissue is known to contain both non-specific esterase activity as well as to convert arachidonic acid to thromboxane (via a cyclooxygenase dependent pathway) which is then ultimately responsible for the smooth muscle contraction observed in this assay.

[7] = Table II, MOS-AAPV-pNA 0.5 mM, pH 7.5, 25 C

Chain of mu-opiate receptor (A0ACM8Q262 1-400): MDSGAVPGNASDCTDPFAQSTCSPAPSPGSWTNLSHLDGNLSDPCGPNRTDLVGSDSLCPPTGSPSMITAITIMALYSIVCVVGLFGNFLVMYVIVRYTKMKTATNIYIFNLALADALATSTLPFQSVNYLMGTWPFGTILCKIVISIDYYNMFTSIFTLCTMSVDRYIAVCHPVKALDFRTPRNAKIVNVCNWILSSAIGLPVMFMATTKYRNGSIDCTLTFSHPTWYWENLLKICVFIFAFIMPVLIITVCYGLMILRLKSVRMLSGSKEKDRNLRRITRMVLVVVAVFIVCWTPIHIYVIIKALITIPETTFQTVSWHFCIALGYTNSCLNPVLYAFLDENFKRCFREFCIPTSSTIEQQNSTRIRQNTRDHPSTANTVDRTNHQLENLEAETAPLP

COc1ccc2c3c1O[C@H]1C(=O)CC[C@@]4(O)[C@@H](C2)N(C)CC[C@]314 [oxycodone]
pA2 -Rat Uterus (BK2-receptor [1]; Table I, BK2-receptor activity): inactive | activity in guinea pig ileum assay (mu-opiate receptor): neither oxycodone nor the heterodimers derived from oxycodone (CP-0477 and CP-0488) showed any activity

CC(C)C[C@H](NC(=O)[C@@H](Cc1ccccc1)NC(=O)[C@H](CSC1CC(=O)N(CCCCCCN2C(=O)CC(SCCNC3CC[C@@]4(O)[C@H]5Cc6ccc(O)c7c6[C@@]4(CCN5C)[C@H]3O7)C2=O)C1=O)NC(=O)[C@H](Cc1ccccc1)NC(=O)CNC(=O)[C@@H]1C[C@@H](O)CN1C(=O)[C@@H]1CCCN1C(=O)[C@H](CCCNC(=N)N)NC(=O)[C@H](N)CCCNC(=N)N)C(=O)N[C@@H](CCCNC(=N)N)C(=O)O (stereo partly shown) [CP-0494] (H-[dR]RP[Hyp]GFC(X1)[dF]LR-OH)
Kb (BK2-receptor [2]): 3.98 nM | narcotic / behavioral effects in the formalin test [3]: no observable narcotic effects

COc1ccc2c3c1O[C@H]1C(NCCSC4CC(=O)N(CCCCCCN5C(=O)CC(SC[C@H](NC(=O)[C@H](Cc6ccccc6)NC(=O)CNC(=O)[C@@H]6C[C@@H](O)CN6C(=O)[C@@H]6CCCN6C(=O)[C@H](CCCNC(=N)N)NC(=O)[C@H](N)CCCNC(=N)N)C(=O)N[C@H](Cc6ccccc6)C(=O)N[C@@H](CC(C)C)C(=O)N[C@@H](CCCNC(=N)N)C(=O)O)C5=O)C4=O)CC[C@@]4(O)[C@@H](C2)N(C)CC[C@]314 (stereo partly shown) [CP-0477] (H-[dR]RP[Hyp]GFC(X9)[dF]LR-OH)
Kb (BK2-receptor [2]): 12.6 nM

CC(C)(C)c1ccc(C(C)(C)C(=O)Oc2ccc(CCCC(=O)O)cc2)cc1 [CE-1218, 4-(3'-carboxy-propyl)phenyl 4-tert-butylphenylisobutyrate]
pA2 -Rat Uterus (BK2-receptor [1]; Table II): inactive | Ki ([4]; Table II, MOS-AAPV-pNA 0.5 mM, pH 7.5, 25 C, read-out: Ki^ss (HNE)): 10.5 nM

CC(C)C[C@H](NC(=O)[C@@H](Cc1ccccc1)NC(=O)[C@H](CS)NC(=O)[C@H](Cc1ccccc1)NC(=O)CNC(=O)[C@@H]1C[C@@H](O)CN1C(=O)[C@@H]1CCCN1C(=O)[C@H](CCCNC(=N)N)NC(=O)[C@H](N)CCCNC(=N)N)C(=O)N[C@@H](CCCNC(=N)N)C(=O)O [CP-0126, D R-R-P-J-G-F-C-D F-L-R] (HELM PEPTIDE1{[dR].R.P.[Hyp].G.F.C.[dF].L.R}$$$$V2.0)
Ki^ss (HNE) [4, 7]: inactive

D R-R-P-J-G-F-C-D F-L-R
cleaved bond [5]: Leu8-Arg9 | fragment found [5]: CP-0487

COc1ccc2c3c1O[C@H]1C(NC(=O)CNC(=O)CCSC4CC(=O)N(CCCCCCN5C(=O)CC(SC[C@H](NC(=O)[C@H](Cc6ccccc6)NC(=O)CNC(=O)[C@@H]6C[C@@H](O)CN6C(=O)[C@@H]6CCCN6C(=O)[C@H](CCCNC(=N)N)NC(=O)[C@H](N)CCCNC(=N)N)C(=O)N[C@H](Cc6ccccc6)C(=O)N[C@@H](CC(C)C)C(=O)N[C@@H](CCCNC(=N)N)C(=O)O)C5=O)C4=O)CC[C@@]4(O)[C@@H](C2)N(C)CC[C@]314 (stereo partly shown) [CP-0488] (H-[dR]RP[Hyp]GFC(X13)[dF]LR-OH)
Kb (BK2-receptor [2]): 6.31 nM

CC(C)C[C@H](NC(=O)[C@@H](Cc1ccccc1)NC(=O)[C@H](CSC1CC(=O)N(CCCCCCOC(=O)CCCS(=O)(=O)c2ccc(OC(=O)C(C)(C)c3ccc(C(C)(C)C)cc3)cc2)C1=O)NC(=O)[C@H](Cc1ccccc1)NC(=O)CNC(=O)[C@@H]1C[C@@H](O)CN1C(=O)[C@@H]1CCCN1C(=O)[C@H](CCCNC(=N)N)NC(=O)[C@H](N)CCCNC(=N)N)C(=O)N[C@@H](CCCNC(=N)N)C(=O)O (stereo partly shown) [CP-0502] (H-[dR]RP[Hyp]GFC(X4)[dF]LR-OH)
Ki [4]: 6.6 nM | Kb (BK2-receptor [2]): 31.6 nM | half-life (in vitro; human, plasma (freshly obtained normal human plasma)): ~1.88 h | hydrolysis in human plasma (HPLC) (in vitro; normal human plasma, 37° C., to CP-0487 and its des-Arg9 derivative): readily hydrolyzed

COc1ccc2c(c1)c(CC(=O)O)c(C)n2C(=O)c1ccc(Cl)cc1 [indomethacin]
pA2, standard rat uterus assay (BK2-receptor [1]; intact compound): no effect on this assay at any concentration | log dose ratio shift [6]: 0.998+/-0.425

N=C(N)NCCC[C@@H](N)C(=O)N[C@@H](CCCNC(=N)N)C(=O)N1CCC[C@H]1C(=O)N1C[C@H](O)C[C@H]1C(=O)NCC(=O)N[C@@H](Cc1cccs1)C(=O)N[C@@H](CS)C(=O)N1Cc2ccccc2C[C@@H]1C(=O)N1[C@H](C(=O)N[C@@H](CCCNC(=N)N)C(=O)O)C[C@@H]2CCCC[C@@H]21 [CP-0347, D R-R-P-J-G-Thi-C-D Tic-Oic-R] (H-[dR]RP[Hyp]G[2Thi]C[dTic][Oic]R-OH)
Kb (BK2-receptor [2]): 0.316 nM

COc1ccc2c(c1)c(CC(=O)OCCCCCCN1C(=O)CC(SC[C@H](NC(=O)[C@H](Cc3ccccc3)NC(=O)CNC(=O)[C@@H]3C[C@@H](O)CN3C(=O)[C@@H]3CCCN3C(=O)[C@H](CCCNC(=N)N)NC(=O)[C@H](N)CCCNC(=N)N)C(=O)N[C@H](Cc3ccccc3)C(=O)N[C@@H](CC(C)C)C(=O)N[C@@H](CCCNC(=N)N)C(=O)O)C1=O)c(C)n2C(=O)c1ccc(Cl)cc1 (stereo partly shown) [CP-0460] (H-[dR]RP[Hyp]GFC(X7)[dF]LR-OH)
Kb (BK2-receptor [2]): ~15.8 nM

CC(C)C[C@H](NC(=O)[C@@H](Cc1ccccc1)NC(=O)[C@H](CSC1CC(=O)N(CCCCCCO)C1=O)NC(=O)[C@H](Cc1ccccc1)NC(=O)CNC(=O)[C@@H]1C[C@@H](O)CN1C(=O)[C@@H]1CCCN1C(=O)[C@H](CCCNC(=N)N)NC(=O)[C@H](N)CCCNC(=N)N)C(=O)N[C@@H](CCCNC(=N)N)C(=O)O (stereo partly shown) [CP-0487] (H-[dR]RP[Hyp]GFC(X20)[dF]LR-OH)
Ki^ss (HNE) [4, 7]: inactive | Kb (BK2-receptor [2]): 3.98 nM

CN1CC[C@]23c4c5ccc(O)c4O[C@H]2C(=O)CC[C@@]3(O)[C@H]1C5 [oxymorphone]
pA2 -Rat Uterus (BK2-receptor [1]; Table I, BK2-receptor activity): inactive | effect on licking behavior (both phases) in the formalin test ([3]; 50 ul formalin in hind limb foot pad): reduces both phases of the licking behavior | dose at which both phases of the pain response are blocked ([3]; mouse formalin test): 0.9 µmol/kg | narcotic / behavioral effects in the formalin test [3]: significant behavioral obtundation resulting in catalepsy and frank respiratory depression

— US5863899A (priority 1994, dated 1999)
